One experiment has as its target α4β7 integrin (Homo sapiens (Human), UniProt P13612+P26010). The experiment can be described thus: Integrin Adhesion Assay: Protocol 4 (MAdCAM-coated plate, RPMI-8866 cells with stable LOF mutation of the ITGB1 gene). The class given is cell-based. To be noted: Protocol 4; RPMI-8866 cells with LOF mutation of ITGB1, MAdCAM; read-out: Mean IC50 α4β7 KO. The procedure, abridged: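 RPMI-8866 cells with CRISPR/Cas9 knockout of ITGB1 (2×10^6/mL) were added to MAdCAM-coated wells with compound (1% DMSO) in HEPES/NaCl buffer with 1 mM MnCl2, 0.1 mM CaCl2 and 1% BSA, then incubated 1 h at 37 °C. After four washes, adherent cells were quantified by CellTiter-Glo luminescence. Percent inhibition versus DMSO and control compound was fitted to 4-parameter curves.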

The target of a further experiment is α4β1 integrin (Homo sapiens (Human), UniProt P05556+P13612). The experiment can be described thus: Integrin Adhesion Assay: Protocol 5 (VCAM-coated plate, RPMI-8866 cells with stable LOF mutation of the ITGB7 gene). To be noted: Protocol 5; RPMI-8866 cells with LOF mutation of ITGB7, VCAM; read-out: Mean IC50 α4β1 KO. The experiment is classed as cell-based. In a few lines:
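RPMI-8866 B cells with CRISPR/Cas9 ITGB7 knockout (clonal, verified by flow cytometry) adhered to VCAM-coated wells for 1 h at 37° C in HEPES/NaCl buffer with 1 mM MnCl2, 0.1 mM CaCl2, 1% BSA, 1% DMSO. Bound cells quantified by CellTiter-Glo luminescence after washing; % inhibition versus DMSO and control, 4-parameter fit.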

These results are taken from patent US20250313535A1, “ALPHA 4 BETA 7 INTEGRIN MODULATORS AND USES THEREOF” (DICE MOLECULES SV, INC., priority 2022, published 2025).

Molecules are shown by their SMILES. Bounds are passed on as bounds.

α4β1 integrin, sequence (P13612 34-1032): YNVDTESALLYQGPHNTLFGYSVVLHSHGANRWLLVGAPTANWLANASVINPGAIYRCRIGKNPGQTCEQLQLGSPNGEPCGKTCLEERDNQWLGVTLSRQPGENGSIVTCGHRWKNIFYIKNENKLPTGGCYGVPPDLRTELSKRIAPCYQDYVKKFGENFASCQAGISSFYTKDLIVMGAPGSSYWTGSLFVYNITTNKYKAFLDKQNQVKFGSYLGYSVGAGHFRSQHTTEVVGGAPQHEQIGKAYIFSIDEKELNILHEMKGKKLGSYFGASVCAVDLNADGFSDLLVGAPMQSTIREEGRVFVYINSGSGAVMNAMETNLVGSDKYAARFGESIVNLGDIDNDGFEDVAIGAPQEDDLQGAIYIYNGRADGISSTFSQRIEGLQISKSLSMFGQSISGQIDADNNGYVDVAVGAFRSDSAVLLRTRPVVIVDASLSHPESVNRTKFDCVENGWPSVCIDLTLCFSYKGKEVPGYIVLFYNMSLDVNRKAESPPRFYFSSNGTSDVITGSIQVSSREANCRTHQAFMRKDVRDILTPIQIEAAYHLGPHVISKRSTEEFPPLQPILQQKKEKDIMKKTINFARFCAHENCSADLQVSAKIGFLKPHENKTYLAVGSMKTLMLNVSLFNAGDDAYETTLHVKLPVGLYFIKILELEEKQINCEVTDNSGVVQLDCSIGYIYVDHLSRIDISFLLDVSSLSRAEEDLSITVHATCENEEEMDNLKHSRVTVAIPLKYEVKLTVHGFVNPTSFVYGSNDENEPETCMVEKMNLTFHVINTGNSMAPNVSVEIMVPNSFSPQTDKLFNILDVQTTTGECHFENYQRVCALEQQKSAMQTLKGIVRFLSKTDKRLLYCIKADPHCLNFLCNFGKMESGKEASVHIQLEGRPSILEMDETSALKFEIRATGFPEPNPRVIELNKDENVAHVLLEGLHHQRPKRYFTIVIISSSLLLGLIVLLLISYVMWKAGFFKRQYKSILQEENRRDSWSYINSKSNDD
α4β1 integrin, sequence (P05556 21-798): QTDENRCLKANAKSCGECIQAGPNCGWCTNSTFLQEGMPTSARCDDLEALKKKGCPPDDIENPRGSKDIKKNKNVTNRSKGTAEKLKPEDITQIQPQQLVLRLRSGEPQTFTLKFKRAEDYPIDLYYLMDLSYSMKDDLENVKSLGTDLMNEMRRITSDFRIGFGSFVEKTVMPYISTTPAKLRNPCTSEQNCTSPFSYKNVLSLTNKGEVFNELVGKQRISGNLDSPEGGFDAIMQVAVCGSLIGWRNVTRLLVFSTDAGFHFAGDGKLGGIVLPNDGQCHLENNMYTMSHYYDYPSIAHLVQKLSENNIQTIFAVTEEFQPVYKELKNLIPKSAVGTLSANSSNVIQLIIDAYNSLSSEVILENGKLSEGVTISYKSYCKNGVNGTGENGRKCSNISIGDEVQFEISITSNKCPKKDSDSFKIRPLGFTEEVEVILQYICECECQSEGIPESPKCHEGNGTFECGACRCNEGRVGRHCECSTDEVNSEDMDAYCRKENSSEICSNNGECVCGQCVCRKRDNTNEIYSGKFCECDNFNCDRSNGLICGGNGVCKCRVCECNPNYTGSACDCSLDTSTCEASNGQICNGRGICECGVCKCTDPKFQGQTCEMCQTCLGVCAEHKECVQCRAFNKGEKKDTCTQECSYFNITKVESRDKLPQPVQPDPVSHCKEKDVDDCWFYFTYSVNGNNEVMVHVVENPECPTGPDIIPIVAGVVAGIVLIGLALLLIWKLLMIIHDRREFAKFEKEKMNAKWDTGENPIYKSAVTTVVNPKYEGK
α4β7 integrin, sequence (P13612 34-1032): as the sequence (P13612 34-1032) above
α4β7 integrin, sequence (P26010 20-798): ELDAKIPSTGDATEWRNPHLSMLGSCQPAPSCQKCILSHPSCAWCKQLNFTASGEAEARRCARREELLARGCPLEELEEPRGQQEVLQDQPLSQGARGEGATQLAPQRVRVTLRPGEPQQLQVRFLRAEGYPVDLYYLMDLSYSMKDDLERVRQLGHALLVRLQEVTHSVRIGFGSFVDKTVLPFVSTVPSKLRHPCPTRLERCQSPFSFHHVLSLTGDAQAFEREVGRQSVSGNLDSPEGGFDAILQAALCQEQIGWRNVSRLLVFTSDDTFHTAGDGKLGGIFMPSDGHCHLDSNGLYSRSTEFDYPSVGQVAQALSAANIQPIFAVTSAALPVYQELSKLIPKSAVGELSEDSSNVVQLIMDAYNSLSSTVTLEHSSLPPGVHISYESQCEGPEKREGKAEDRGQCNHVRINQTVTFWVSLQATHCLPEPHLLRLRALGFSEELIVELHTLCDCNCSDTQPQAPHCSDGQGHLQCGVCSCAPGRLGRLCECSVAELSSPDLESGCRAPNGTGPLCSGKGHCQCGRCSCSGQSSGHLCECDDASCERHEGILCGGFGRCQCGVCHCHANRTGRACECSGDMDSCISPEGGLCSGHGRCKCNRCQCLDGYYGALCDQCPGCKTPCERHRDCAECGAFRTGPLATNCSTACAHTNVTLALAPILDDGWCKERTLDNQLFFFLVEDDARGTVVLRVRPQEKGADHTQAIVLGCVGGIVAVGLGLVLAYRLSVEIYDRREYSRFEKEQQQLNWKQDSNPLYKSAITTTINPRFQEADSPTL

For orientation: IC50 means the midpoint of a concentration-inhibition curve. As for `COc1cc(CN2CCCCC2)c2cccnc2c1-c1cccc2c(C[C@H](NC(=O)C3(C(F)(F)F)CCN(CC(F)(F)F)CC3)C(=O)O)cccc12` [Compound 728], the IC50 on α4β7 integrin was < 10 nM; at α4β1 integrin, 100 to 1000 nM.

`COc1cccc(OCCN2CCCCC2)c1-c1cccc2c(C[C@H](NC(=O)C3(C(F)(F)F)CCN(CC(F)(F)F)CC3)C(=O)O)cccc12` [Compound 729]: the IC50 on α4β7 integrin is < 10 nM; on α4β1 integrin, 100 to 1000 nM.

On to `O=C(O)[C@H](Cc1cccc2c(-c3ncc(CCCN4CCCCC4)c4ccccc34)cccc12)NC(=O)C1(C(F)(F)F)CCN(CC(F)(F)F)CC1` [Compound 730], for which the concentration for half-maximal inhibition (IC50) at α4β7 integrin was < 10 nM; on α4β1 integrin, > 1000 nM.

Consider `COc1ccc(CCN2CCCCC2)cc1-c1cccc2c(C[C@H](NC(=O)C3(C(F)(F)F)CCN(CC(F)(F)F)CC3)C(=O)O)cccc12` [Compound 731], for which the IC50 on α4β7 integrin is < 10 nM; on α4β1 integrin, 100 to 1000 nM.

In the case of `O=C(O)[C@H](Cc1cccc2c(-c3cc(CN4CCCCC4)cc4cccnc34)cccc12)NC(=O)C1(C(F)(F)F)CCN(CC(F)(F)F)CC1` [Compound 732], the IC50 on α4β7 integrin is 10 to 100 nM; at α4β1 integrin, > 1000 nM.

In the case of `COc1ccc2cc(CN3CCCCC3)cnc2c1-c1cccc2c(C[C@H](NC(=O)C3(C(F)(F)F)CCN(CC(F)(F)F)CC3)C(=O)O)cccc12` [Compound 733], the IC50 fell in the range of 10 to 100 nM on α4β7 integrin and 100 to 1000 nM on α4β1 integrin.

Take `COc1cncc(OC)c1-c1cccc2c(C[C@H](NC(=O)C3(C(F)(F)F)CCN(CC(F)(F)F)CC3)C(=O)O)cccc12` [Compound 734]: the IC50 at α4β7 integrin was < 10 nM; at α4β1 integrin, 100 to 1000 nM.

Consider `COc1c2c(cc(C)c1-c1cccc3c(C[C@H](NC(=O)C4(C(F)(F)F)CCN(CC(F)(F)F)CC4)C(=O)O)cccc13)CCN(C)C2` [Compound 735], for which the IC50 on α4β7 integrin was < 10 nM; on α4β1 integrin, > 1000 nM.

For `COc1ccc2c(c1-c1cccc3c(C[C@H](NC(=O)C4(C(F)(F)F)CCN(CC(F)(F)F)CC4)C(=O)O)cccc13)CCN(C)C2` [Compound 737], the IC50 at α4β7 integrin was < 10 nM; at α4β1 integrin, 100 to 1000 nM.

For the compound `COc1cc2ncccc2c(C)c1-c1cccc2c(C[C@H](NC(=O)C3(C(F)(F)F)CCN(CC(F)(F)F)CC3)C(=O)O)cccc12` [Compound 738], the IC50 was 10 to 100 nM at α4β7 integrin and > 1000 nM on α4β1 integrin.

As for `COc1c(-c2cccc3c(C[C@H](NC(=O)C4(C(F)(F)F)CCN(CC(F)(F)F)CC4)C(=O)O)cccc23)c(=O)n(C)c2ccccc12` [Compound 739], the values for the IC50 on α4β7 integrin and at α4β1 integrin were 10 to 100 nM and > 1000 nM, respectively.

For `COc1cc(CCN2CCCCC2)ccc1-c1cccc2c(C[C@H](NC(=O)c3c(C)cccc3F)C(=O)O)cccc12` [Compound 740], the IC50 was < 10 nM on α4β7 integrin and > 1000 nM at α4β1 integrin.

With `COc1cc(C(F)(F)F)cc(CCN2CCCCC2)c1-c1cccc2c(C[C@H](NC(=O)C3(C(F)(F)F)CCN(CC(F)(F)F)CC3)C(=O)O)cccc12` [Compound 741], the IC50 at α4β7 integrin was 10 to 100 nM; on α4β1 integrin, > 1000 nM.

Turning to `COc1cccc(CCCN2CCC(F)(F)CC2)c1-c1cccc2c(C[C@H](NC(=O)C3(C(F)(F)F)CCN(CC(F)(F)F)CC3)C(=O)O)cccc12` [Compound 742], the IC50 on α4β7 integrin is 10 to 100 nM; on α4β1 integrin it was > 1000 nM.

Take `O=C(O)[C@H](Cc1cccc2c(-c3nccc4ccc(CCCN5C6CCCC5CC6)cc34)cccc12)NC(=O)C1(C(F)(F)F)CCN(CC(F)(F)F)CC1` [Compound 744]: the IC50 on α4β7 integrin was < 10 nM; on α4β1 integrin, > 1000 nM.

Regarding `O=C(O)[C@H](Cc1cccc2c(-c3ncc(CN4CCCCC4)c4c3CCCC4)cccc12)NC(=O)C1(C(F)(F)F)CCN(CC(F)(F)F)CC1` [Compound 746], the results for the IC50 at α4β7 integrin and at α4β1 integrin were < 10 nM and > 1000 nM, respectively.

As to `O=C(O)[C@H](Cc1cccc2c(-c3nccc4ccc(CCCN5CCCCC5)cc34)cccc12)NC(=O)C1(C(F)(F)F)CCN(CC(F)F)CC1` [Compound 748], the 50% inhibitory concentration (IC50) at α4β7 integrin was < 10 nM; on α4β1 integrin, > 1000 nM.

Regarding `O=C(O)[C@H](Cc1cccc2c(-c3ccccc3OCCN3CCCCC3)cccc12)NC(=O)C1(C(F)(F)F)CCN(CC(F)(F)F)CC1` [Compound 749], the IC50 was 10 to 100 nM at α4β7 integrin and > 1000 nM on α4β1 integrin.

Consider `COc1ccc2c(c1-c1cccc3c(C[C@H](NC(=O)C4(C(F)(F)F)CCN(CC(F)(F)F)CC4)C(=O)O)cccc13)CN(CC(F)(F)F)CC2` [Compound 750], for which the IC50 was 10 to 100 nM at α4β7 integrin and > 1000 nM at α4β1 integrin.

Turning to `CCOCc1cc(CN2CCCCC2)c(-c2cccc3c(C[C@H](NC(=O)C4(C(F)(F)F)CCN(CC(F)(F)F)CC4)C(=O)O)cccc23)c(OC)c1` [Compound 751], the IC50 at α4β7 integrin was 10 to 100 nM; on α4β1 integrin, > 1000 nM.

For the compound `COc1ccc2c(c1-c1cccc3c(C[C@H](NC(=O)C4(C(F)(F)F)CCN(CC(F)(F)F)CC4)C(=O)O)cccc13)CCN(CC(F)F)C2` [Compound 752], the results for the IC50 at α4β7 integrin and on α4β1 integrin were 10 to 100 nM and > 1000 nM, respectively.

Turning to `COc1ccc2c(c1-c1cccc3c(C[C@H](NC(=O)C4(C(F)(F)F)CCN(CC(F)(F)F)CC4)C(=O)O)cccc13)CN(CC(F)F)CC2` [Compound 753], the IC50 is 10 to 100 nM on α4β7 integrin and > 1000 nM on α4β1 integrin.

As for `CN1CCc2cc(-c3cccc4c(C[C@H](NC(=O)C5(C(F)(F)F)CCN(CC(F)(F)F)CC5)C(=O)O)cccc34)ncc2C1` [Compound 754], the IC50 at α4β7 integrin was 10 to 100 nM; at α4β1 integrin it was > 1000 nM.

Regarding `Cc1cc(CCN2CCCCC2)cnc1-c1cccc2c(C[C@H](NC(=O)C3(C(F)(F)F)CCN(CC(F)F)CC3)C(=O)O)cccc12` [Compound 756], the IC50 at α4β7 integrin is < 10 nM; at α4β1 integrin it was > 1000 nM.

With `CN1CCC(c2cnc(-c3cccc4c(C[C@H](NC(=O)C5(C(F)(F)F)CCN(CC(F)(F)F)CC5)C(=O)O)cccc34)c(C(F)(F)F)c2)CC1` [Compound 757], the figures for the IC50 at α4β7 integrin and on α4β1 integrin were < 10 nM and 100 to 1000 nM, respectively.

Turning to `CN1CCCC(c2cnc(-c3cccc4c(C[C@H](NC(=O)C5(C(F)(F)F)CCN(CC(F)(F)F)CC5)C(=O)O)cccc34)c(C(F)(F)F)c2)C1` (some centres unmarked) [Compound 758], the figures for the 50% inhibitory concentration (IC50) on α4β7 integrin and at α4β1 integrin were < 10 nM and 100 to 1000 nM, respectively.

Turning to `Cc1cc(C2CCN(C)CC2)cnc1-c1cccc2c(C[C@H](NC(=O)C3(C(F)(F)F)CCN(CC(F)(F)F)CC3)C(=O)O)cccc12` [Compound 759], the 50% inhibitory concentration (IC50) at α4β7 integrin was < 10 nM; on α4β1 integrin it was > 1000 nM.

For the compound `O=C(O)[C@H](Cc1cccc2c(-c3ncc(CN4CCCCC4)cc3Cl)cccc12)NC(=O)C1(C(F)(F)F)CCN(CC(F)(F)F)CC1` [Compound 761], the IC50 was 10 to 100 nM at α4β7 integrin and > 1000 nM at α4β1 integrin.

`O=C(O)[C@H](Cc1cccc2c(-c3ncc(C(=O)N4CCN(C5CC5)CC4)c4ccccc34)cccc12)NC(=O)C1(C(F)(F)F)CCN(CC(F)(F)F)CC1` [Compound 762]: the results for the IC50 on α4β7 integrin and on α4β1 integrin were 10 to 100 nM and > 1000 nM, respectively.

Regarding `O=C(O)[C@H](Cc1cccc2c(-c3ncc(C(=O)N4CCN(C5CC5)CC4)c4ccccc34)cccc12)NC(=O)C1(C(F)(F)F)CCN(CC(F)F)CC1` [Compound 763], the results for the IC50 on α4β7 integrin and at α4β1 integrin were 10 to 100 nM and > 1000 nM, respectively.

For the compound `COc1c(-c2cccc3c(C[C@H](NC(=O)C4(C(F)(F)F)CCN(CC(F)F)CC4)C(=O)O)cccc23)cc(CN2CCCCC2)cc1C(F)(F)F` [Compound 764], the IC50 was 10 to 100 nM at α4β7 integrin and > 1000 nM at α4β1 integrin.

For the compound `COc1ccc2ccccc2c1-c1cccc2c(C[C@H](NC(=O)C3(C(F)(F)F)CCN(CC(F)(F)F)CC3)C(=O)O)cccc12` [Compound 765], the IC50 at α4β7 integrin is 10 to 100 nM; at α4β1 integrin, > 1000 nM.

With `O=C(O)[C@H](Cc1cccc2c(-c3cccc4c3OCCO4)cccc12)NC(=O)C1(C(F)(F)F)CCN(CC(F)(F)F)CC1` [Compound 766], the results for the IC50 at α4β7 integrin and on α4β1 integrin were 10 to 100 nM and > 1000 nM, respectively.

With `CCOCc1cc(OC)c(-c2cccc3c(C[C@H](NC(=O)C4(C(F)(F)F)CCN(CC(F)(F)F)CC4)C(=O)O)cccc23)cc1CN1CCCCC1` [Compound 768], the results for the IC50 on α4β7 integrin and at α4β1 integrin were < 10 nM and 100 to 1000 nM, respectively.

Regarding `O=C(O)[C@H](Cc1cccc2c(-c3nccc4ccc(CCCN5CCC6(CC5)CC6)cc34)cccc12)NC(=O)C1(C(F)(F)F)CCN(C2COC2)CC1` [Compound 773], the figures for the IC50 at α4β7 integrin and at α4β1 integrin were < 10 nM and 100 to 1000 nM, respectively.

In the case of `COc1ccc2ccnc(-c3cccc4c(C[C@H](NC(=O)C5(C(F)(F)F)CCN(CC(F)(F)F)CC5)C(=O)O)cccc34)c2c1` [Compound 777], the IC50 at α4β7 integrin was 10 to 100 nM; on α4β1 integrin it was > 1000 nM.

For the compound `COC(=O)[C@H](Cc1cccc2c(-c3ncc(CN(C)C)c4ccccc34)cccc12)NC(=O)C1(C(F)(F)F)CCN(CC(F)F)CC1` [Compound 778], the half-maximal inhibitory concentration (IC50) at α4β7 integrin was < 10 nM; on α4β1 integrin it was 100 to 1000 nM.

Consider `COC(=O)[C@H](Cc1cccc2c(-c3c(OC)ccc(CN4CCC(C)C(F)(F)CC4)c3OC)cccc12)NC(=O)C1(C(F)(F)F)CCN(CC(F)(F)F)CC1` (some centres unmarked) [Compound 779], for which the results for the IC50 at α4β7 integrin and on α4β1 integrin were < 10 nM and 100 to 1000 nM, respectively.

On to `COc1ccc(CN2CCC(F)(F)CC2)c(OC)c1-c1cccc2c(C[C@H](NC(=O)C3(C(F)(F)F)CCN(CC(F)(F)F)CC3)C(=O)O)cccc12` [Compound 780], for which the IC50 is 10 to 100 nM on α4β7 integrin and > 1000 nM on α4β1 integrin.

As to `COc1ccc(CN2CC(F)C2)c(OC)c1-c1cccc2c(C[C@H](NC(=O)C3(C(F)(F)F)CCN(CC(F)(F)F)CC3)C(=O)O)cccc12` [Compound 781], the IC50 is 10 to 100 nM on α4β7 integrin and > 1000 nM on α4β1 integrin.
